# Legend:
# [1] = tested on: CYP3A4 mRNA; conditions: human, hepatocytes
# Text: (2) CYP positive inducers (Table 58a) and Williams' Medium E (WME) were purchased from Sigma-Aldrich (St. Louis, MO, USA). Dulbecco's phosphate-buffered saline (DPBS, pH 7.4) was purchased from Invitrogen (Carlsbad, CA, USA). Hepatocyte culture medium (serum-free) for CYP induction was purchased from XenoTech (catalog #K2300, Lenexa, KS, USA). The CellTiter 96 AQueous ONE Solution Cell Proliferation Assay was obtained from Promega (Madison, WI, USA). All other chemicals and reagents were of analytical grade or higher. (3) Fresh human hepatocytes (Table 58b) seeded at ˜0.15 million cells/well in 48-well plates (˜0.75 million cells/mL) were purchased from Thermo Fisher Scientific (Grand Island, NY, USA) and BioreclamationIVT (Baltimore, MD, USA).
# Vehicle controls were treated in parallel with hepatocyte culture medium. […] (2) After the CYP induction treatment, the cells were used for a cell viability assay. […] The absorbance of formazan, which is proportional to the number of viable cells, was measured spectrophotometrically using the CellTiter 96 AQueous ONE Solution Cell Proliferation Assay. […] The concentration of RNA was determined using a Qubit Fluorometer with a Qubit RNA HS assay kit (Invitrogen). cDNA was synthesized from up to 1 μg of the total RNA harvested from the cells using a QuantiTect RT kit (Qiagen). […]
# [2] = tested on: other 109 ubiquitin-related proteins/enzymes; experiment: ProtoArray protein microarray probed with 3H-FL118; format: binding, human
# Procedure: The flask was then immersed in silicone oil bath at 180° C.-190° C. for 6 hours. The tritium gas was removed. The reaction mixture was dissolved in 1 mL of DMSO and back-exchanged 10× with 50% ethanol. Injected directly to CapCeLL PAK C-18 column (4.6×250 mm), mobile phase 30% CH3CN, 0.1% TFA, flow 1 mL/min, U.V. =200 nm, r.t. =40 min. After purification, total activity was 5 mCi (solid) with a specificity of 5.6 Ci/mmol at a radiochemical purity of >97% for ^3H-FL118. […] The flask was then immersed in silicone oil bath at 190° C. for 24 h. The tritium gas was removed. The reaction mixture was dissolved in 1 mL of DMSO and back-exchanged 10× with 50% ethanol and injected directly to CapCeLL Pak C-18 column (4.6×250 mm), mobile phase 30% CH3CN, 0.1% TFA, […], U.V. =200 nm, r.t. =40 min. After purification total activity was 5 mCi (solid) with a specificity of 16.5 Ci/mmol at a radiochemical purity of ≥81% for ^3H-FL118.
# Use of ^3H-FL118 as a radioactive probe to search FL118-binding proteins through screening of human protein microarray (ProtoArray R with 9,400 human proteins, Invitrogen): The study process includes the following steps.
# 1. Blocking the ProtoArray: (i) Immediately place the mailer containing the Human Protein Microarray v5.0 at 4° C. upon removal from storage at −20° C. and equilibrate the mailer at 4° C. for at least 15 minutes prior to use. […]
smiles,measurement,setting,value
CCC1(O)C(=O)OCc2c1cc1n(c2=O)Cc2cc3cc4c(cc3nc2-1)OCO4 (stereo not drawn) [FL118],minor induction of CYP3A4,[1],5-8%
same,minor induction of CYP3A4 mRNA,[1],FL118 induces a minor induction (5-8%) of CYP3A4
same,binding to other ubiquitin-related proteins,[2],did not bind

# Reference: patent US20250312469A1 (CANGET BIOTEKPHARMA, priority 2024, published 2025)
